System: fungi in Onychomycosis and tinea pedis
Test: Tolnaftate solution concentration sufficient to kill the fungi
Details: used in a penetrating base
Text: Tolnaftate USP (known by the trade name Tinactin ™) is a white crystalline powder that has been used as a primary agent in anti-fungal preparations. […] Other anti-fungal agents effective in fighting the fungi causing Onychomycosis and tinea pedis and suitable for use in the present invention are: Clotrimazole, Tioconazole, Nystatin, Terconazole, Butoconazole Nitrate, Unecylenic Acid, Clioquinol, Ciclopirox, Olamine, Econazole Nitrate, Triacetin, Miconazole, Flucytosine, and Ketoconazole.

Structure (SMILES): Cc1cccc(N(C)C(=S)Oc2ccc3ccccc3c2)c1 [Tolnaftate]
- solution concentration sufficient to kill the fungi: 1%
